Results from ChEMBL document CHEMBL4145553, “Design, synthesis, and biological evaluation of novel amide and hydrazide based thioether analogs targeting Histone deacteylase (HDAC) enzymes” (Eur J Med Chem, 2018).
Calls of active or inactive are those of the source. The rule behind the calls is not given here.

Columns and labels:
COLO 205 = assay: Growth inhibition of human COLO205 cells assessed as cell growth at 10^-8 M incubated for 48 hrs by sulforhodamine B assay relative to control; assay type: functional; conditions: COLO 205, 48 h, read-out: Activity
SK-MEL-28 = assay: Growth inhibition of human SK-MEL-28 cells assessed as cell growth at 10^-8 M incubated for 48 hrs by sulforhodamine B assay relative to control; assay type: functional; conditions: SK-MEL-28, 48 h, read-out: Activity
786-0 [1] = assay: Growth inhibition of human 786-0 cells assessed as cell growth at 10^-8 M incubated for 48 hrs by sulforhodamine B assay relative to control; assay type: functional; conditions: 786-0, 48 h, read-out: Activity
CCRF-CEM [2] = assay: Growth inhibition of human CCRF-CEM cells assessed as cell growth at 10^-7 M incubated for 48 hrs by sulforhodamine B assay relative to control; assay type: functional; conditions: read-out: Activity
HL-60(TB) [3] = assay: Growth inhibition of human HL-60(TB) cells assessed as cell growth at 10^-7 M incubated for 48 hrs by sulforhodamine B assay relative to control; assay type: functional; conditions: HL-60, 48 h, read-out: Activity
K562 = assay: Growth inhibition of human K562 cells assessed as cell growth at 10^-7 M incubated for 48 hrs by sulforhodamine B assay relative to control; assay type: functional; conditions: K562, 48 h, read-out: Activity
KM12 = assay: Growth inhibition of human KM12 cells assessed as cell growth at 10^-7 M incubated for 48 hrs by sulforhodamine B assay relative to control; assay type: functional; conditions: KM12, 48 h, read-out: Activity
SF-539 = assay: Growth inhibition of human SF539 cells assessed as cell growth at 10^-7 M incubated for 48 hrs by sulforhodamine B assay relative to control; assay type: functional; conditions: SF-539, 48 h, read-out: Activity
SNB-75 = assay: Growth inhibition of human SNB75 cells assessed as cell growth at 10^-7 M incubated for 48 hrs by sulforhodamine B assay relative to control; assay type: functional; conditions: SNB-75, 48 h, read-out: Activity
786-0 [4] = assay: Growth inhibition of human 786-0 cells assessed as cell growth at 10^-7 M incubated for 48 hrs by sulforhodamine B assay relative to control; assay type: functional; conditions: 786-0, 48 h, read-out: Activity
UO-31 [5] = assay: Growth inhibition of human UO31 cells assessed as cell growth at 10^-7 M incubated for 48 hrs by sulforhodamine B assay relative to control; assay type: functional; conditions: UO-31, 48 h, read-out: Activity
BT-549 = assay: Growth inhibition of human BT549 cells assessed as cell growth at 10^-7 M incubated for 48 hrs by sulforhodamine B assay relative to control; assay type: functional; conditions: BT-549, 48 h, read-out: Activity
HL-60(TB) [6] = assay: Growth inhibition of human HL-60(TB) cells assessed as cell growth at 10^-6 M incubated for 48 hrs by sulforhodamine B assay relative to control; assay type: functional; conditions: HL-60, 48 h, read-out: Activity
HCC 2998 [7] = assay: Growth inhibition of human HCC2998 cells assessed as cell growth at 10^-6 M incubated for 48 hrs by sulforhodamine B assay relative to control; assay type: functional; conditions: HCC 2998, 48 h, read-out: Activity
TK-10 [8] = assay: Growth inhibition of human TK10 cells assessed as cell growth at 10^-6 M incubated for 48 hrs by sulforhodamine B assay relative to control; assay type: functional; conditions: TK-10, 48 h, read-out: Activity
UO-31 [9] = assay: Growth inhibition of human UO31 cells assessed as cell growth at 10^-6 M incubated for 48 hrs by sulforhodamine B assay relative to control; assay type: functional; conditions: UO-31, 48 h, read-out: Activity
SR = assay: Growth inhibition of human SR cells assessed as cell growth at 10^-5 M incubated for 48 hrs by sulforhodamine B assay relative to control; assay type: functional; conditions: read-out: Activity
SF-295 = assay: Growth inhibition of human SF295 cells assessed as cell growth at 10^-5 M incubated for 48 hrs by sulforhodamine B assay relative to control; assay type: functional; conditions: SF-295, 48 h, read-out: Activity
LOX IMVI = assay: Growth inhibition of human LOXIMVI cells assessed as cell growth at 10^-5 M incubated for 48 hrs by sulforhodamine B assay relative to control; assay type: functional; conditions: read-out: Activity
Malme-3M = assay: Growth inhibition of human MALME-3M cells assessed as cell growth at 10^-5 M incubated for 48 hrs by sulforhodamine B assay relative to control; assay type: functional; conditions: read-out: Activity
OVCAR-3 = assay: Growth inhibition of human OVCAR3 cells assessed as cell growth at 10^-5 M incubated for 48 hrs by sulforhodamine B assay relative to control; assay type: functional; conditions: OVCAR-3, 48 h, read-out: Activity
NCI/ADR-RES = assay: Growth inhibition of human NCI/ADR-RES cells assessed as cell growth at 10^-5 M incubated for 48 hrs by sulforhodamine B assay relative to control; assay type: functional; conditions: read-out: Activity
TK-10 [10] = assay: Growth inhibition of human TK10 cells assessed as cell growth at 10^-4 M incubated for 48 hrs by sulforhodamine B assay relative to control; assay type: functional; conditions: TK-10, 48 h, read-out: Activity
MDA-MB-468 = assay: Growth inhibition of human MDA-MB-468 cells assessed as cell growth at 10^-4 M incubated for 48 hrs by sulforhodamine B assay relative to control; assay type: functional; conditions: MDA-MB-468, 48 h, read-out: Activity
CCRF-CEM [11] = assay: Growth inhibition of human CCRF-CEM cells incubated for 48 hrs by sulforhodamine B assay; assay type: functional
HCC 2998 [12] = assay: Growth inhibition of human HCC2998 cells incubated for 48 hrs by sulforhodamine B assay; assay type: functional; conditions: HCC 2998, 48 h
HCT-116 = assay: Growth inhibition of human HCT116 cells incubated for 48 hrs by sulforhodamine B assay; assay type: functional; conditions: HCT-116, 48 h
Hs-578T = assay: Growth inhibition of human Hs 578T cells incubated for 48 hrs by sulforhodamine B assay; assay type: functional
T47D = assay: Growth inhibition of human T47D cells incubated for 48 hrs by sulforhodamine B assay; assay type: functional
MDA-MB-435 [13] = assay: Antiproliferative activity against human MDA-MB-435 cells after 24 hrs by MTT assay; assay type: functional; conditions: for GI50: Homo sapiens, MDA-MB-435, 24 h
MDA-MB-435 [14] = assay: Induction of apoptosis in human MDA-MB-435 cells assessed as increase in caspase-3 expression by qRT-PCR method; assay type: functional, cell-based
HL-60 = assay: Downregulation of HDAC3 mRNA expression in human HL60 cells by qRT-PCR method; assay type: functional, cell-based
[15] = read-out: LC50 (the source's name)
[16] = read-out: pLC50 (the source's name) (converted)

CCS/C(Nc1ccccc1)=C(\C#N)C(=O)Nc1ccc(OC)cc1
growth at 0.01 µM (COLO 205): 111%
growth at 0.01 µM (SK-MEL-28): 101%
growth at 0.01 µM (786-0 [1]): 97%
growth at 0.1 µM (CCRF-CEM [2]): 83%
growth at 0.1 µM (HL-60(TB) [3]): 89%
growth at 0.1 µM (K562): 88%
growth at 0.1 µM (KM12): 98%
growth at 0.1 µM (SF-539): 92%
growth at 0.1 µM (SNB-75): 84%
growth at 0.1 µM (786-0 [4]): 86%
growth at 0.1 µM (UO-31 [5]): 91%
growth at 0.1 µM (BT-549): 89%
growth at 1 µM (HL-60(TB) [6]): 86%
growth at 1 µM (HCC 2998 [7]): 91%
growth at 1 µM (TK-10 [8]): 97%
growth at 1 µM (UO-31 [9]): 87%
growth at 10 µM (SR): 21%
growth at 10 µM (SF-295): 16%
growth at 10 µM (LOX IMVI): 40%
growth at 10 µM (Malme-3M): 61%
growth at 10 µM (OVCAR-3): -6%
growth at 10 µM (NCI/ADR-RES): 18%
growth at 100 µM (TK-10 [10]): 24%
growth at 100 µM (MDA-MB-468): -24%
GI50 (CCRF-CEM [11]; read-out: GI50): 1.83 µM
CC50 (CCRF-CEM [11]; [15]): > 100 µM
TGI (CCRF-CEM [11]; read-out: TGI): > 100 µM
GI50 (CCRF-CEM [11]; read-out: pGI50 (converted)): 1.82 µM
CC50 (CCRF-CEM [11]; [16]): > 100 µM
TGI (CCRF-CEM [11]; read-out: pTGI): > 100 µM
GI50 (HCC 2998 [12]; read-out: GI50): 6.56 µM
CC50 (HCC 2998 [12]; [15]): > 100 µM
TGI (HCC 2998 [12]; read-out: TGI): > 100 µM
GI50 (HCC 2998 [12]; read-out: pGI50 (converted)): 6.61 µM
CC50 (HCC 2998 [12]; [16]): > 100 µM
TGI (HCC 2998 [12]; read-out: pTGI): > 100 µM
GI50 (HCT-116; read-out: GI50): 1.95 µM
CC50 (HCT-116; [15]): > 100 µM
TGI (HCT-116; read-out: TGI): 16.4 µM
GI50 (HCT-116; read-out: pGI50 (converted)): 1.95 µM
CC50 (HCT-116; [16]): > 100 µM
TGI (HCT-116; read-out: pTGI (converted)): 16.6 µM
GI50 (Hs-578T; read-out: GI50): 4.07 µM
CC50 (Hs-578T; [15]): > 100 µM
TGI (Hs-578T; read-out: TGI): > 100 µM
GI50 (Hs-578T; read-out: pGI50 (converted)): 4.07 µM
CC50 (Hs-578T; [16]): > 100 µM
TGI (Hs-578T; read-out: pTGI (converted)): > 100 µM
GI50 (T47D; read-out: GI50): 4.08 µM
CC50 (T47D; [15]): > 100 µM
TGI (T47D; read-out: TGI): > 100 µM
GI50 (T47D; read-out: pGI50 (converted)): 4.07 µM
CC50 (T47D; [16]): > 100 µM
TGI (T47D; read-out: pTGI): > 100 µM
Activity (MDA-MB-435 [13]): Dose-dependent effect
GI50 (MDA-MB-435 [13]): 0.37 µM
Activity (MDA-MB-435 [14]): Active
Activity (HL-60): Active

CCS/C(Nc1ccccc1)=C(\C#N)C(=O)N/N=C\c1ccc(Cl)cc1Cl
growth at 0.01 µM (COLO 205): 101%
growth at 0.01 µM (SK-MEL-28): 104%
growth at 0.01 µM (786-0 [1]): 95%
growth at 0.1 µM (CCRF-CEM [2]): 95%
growth at 0.1 µM (HL-60(TB) [3]): 91%
growth at 0.1 µM (K562): 90%
growth at 0.1 µM (KM12): 101%
growth at 0.1 µM (SF-539): 94%
growth at 0.1 µM (SNB-75): 78%
growth at 0.1 µM (786-0 [4]): 88%
growth at 0.1 µM (UO-31 [5]): 90%
growth at 0.1 µM (BT-549): 87%
growth at 1 µM (HL-60(TB) [6]): 93%
growth at 1 µM (HCC 2998 [7]): 99%
growth at 1 µM (TK-10 [8]): 97%
growth at 1 µM (UO-31 [9]): 86%
growth at 10 µM (SR): 28%
growth at 10 µM (SF-295): 15%
growth at 10 µM (LOX IMVI): 39%
growth at 10 µM (Malme-3M): 49%
growth at 10 µM (OVCAR-3): 1%
growth at 10 µM (NCI/ADR-RES): 13%
growth at 100 µM (TK-10 [10]): 42%
growth at 100 µM (MDA-MB-468): -7%
GI50 (CCRF-CEM [11]; read-out: GI50): 3.07 µM
CC50 (CCRF-CEM [11]; [15]): > 100 µM
TGI (CCRF-CEM [11]; read-out: TGI): > 100 µM
GI50 (CCRF-CEM [11]; read-out: pGI50 (converted)): 3.09 µM
CC50 (CCRF-CEM [11]; [16]): > 100 µM
TGI (CCRF-CEM [11]; read-out: pTGI): > 100 µM
GI50 (HCC 2998 [12]; read-out: GI50): 5.47 µM
CC50 (HCC 2998 [12]; [15]): > 100 µM
TGI (HCC 2998 [12]; read-out: TGI): > 100 µM
GI50 (HCC 2998 [12]; read-out: pGI50 (converted)): 5.5 µM
CC50 (HCC 2998 [12]; [16]): > 100 µM
TGI (HCC 2998 [12]; read-out: pTGI): > 100 µM
GI50 (HCT-116; read-out: GI50): 2.99 µM
CC50 (HCT-116; [15]): > 100 µM
TGI (HCT-116; read-out: TGI): > 100 µM
GI50 (HCT-116; read-out: pGI50 (converted)): 3.02 µM
CC50 (HCT-116; [16]): > 100 µM
TGI (HCT-116; read-out: pTGI (converted)): > 100 µM
GI50 (Hs-578T; read-out: GI50): 2.74 µM
CC50 (Hs-578T; [15]): > 100 µM
TGI (Hs-578T; read-out: TGI): 98.7 µM
GI50 (Hs-578T; read-out: pGI50 (converted)): 2.75 µM
CC50 (Hs-578T; [16]): > 100 µM
TGI (Hs-578T; read-out: pTGI (converted)): 97.7 µM
GI50 (T47D; read-out: GI50): 4.03 µM
CC50 (T47D; [15]): > 100 µM
TGI (T47D; read-out: TGI): > 100 µM
GI50 (T47D; read-out: pGI50 (converted)): 4.07 µM
CC50 (T47D; [16]): > 100 µM
TGI (T47D; read-out: pTGI): > 100 µM
Activity (MDA-MB-435 [13]): Dose-dependent effect
GI50 (MDA-MB-435 [13]): 0.42 µM
Activity (MDA-MB-435 [14]): Active
Activity (HL-60): Active
